Results from patent publication US11173135B2 (Thiogenesis Therapeutics, Inc., priority 2016, dated 2021).

Experiments:
[1] = in vivo; cited from earlier work
[2] = cystinuria patients; cited from earlier work
[3] = Tissue levels of cysteamine in liver and kidney at end of PK study; assay type: in vivo, Sprague-Dawley rats; details: 10.5 hours after TTI-0602 120 mg/kg, all three rats
Procedure: (§1) In addition to the plasma samples, gastrointestinal contents (stomach contents, proximal small intestinal contents, distal small intestinal contents and cecum/colon contents), liver, kidney and spleen were obtained from rats at the end of the study (10.5 hours after dosing) and snap frozen. Tissue levels of cysteamine, N-acetyl cysteamine and pantothenic acid were measured in the gastrointestinal contents and in liver and kidney tissue. […]

[4] = Analysis of gastrointestinal contents at end of PK study; assay type: in vivo, Sprague-Dawley rats; details: 120 mg/kg rats, ten hours after dosing
Procedure: as §1

[5] = Dissolution of TTI-0602 dose in saline; assay type: physicochemical; details: 120 mg/kg dose in 3 milliliters of saline
[6] = Pharmacokinetic study of TTI-0602: cysteamine in blood plasma after gavage; assay type: in vivo, Sprague-Dawley rats
Procedure: Thus in the discussion below, and in the accompanying figures, a “30 mg/kg” dose of TTI-0602 means 77.92 mg/kg was administered, a “60 mg/kg” dose of TTI-0602 means 155.84 mg/kg was administered and a “120 mg/kg” dose of TTI-0602 means 311.68 mg/kg was administered. The purpose of this nomenclature, which is widely used in the literature concerning cysteamine salts, is to facilitate comparison of doses of different cysteamine precursors and cysteamine salts.
The TTI-0602 doses were prepared for 250 gram rats, but the actual masses of the rats at the time of drug administration varied from 267-300 grams, so the actual doses, normalized to body weight, ranged from 26.1-27.1 mg/kg in group 1, 51.7-56.2 mg/kg in group 2 and 108.3-109.5 mg/kg in group 3. Nonetheless, for convenience those doses are referred to as 30, 60 and 120 mg/kg.
Blood samples were obtained from rats immediately before dosing and 5, 10, 20, 30, 45, 60, 90, 120, 180, 240, 300 and 600 minutes after dosing via carotid artery catheters surgically implanted before the PK study. Plasma was obtained from blood by centrifugation and snap frozen. Several days later plasma samples were thawed on ice and each plasma sample was aliquoted to two paired tubes (20 μL per tube), one of which was processed for measurement of thiols (after quantitative disulfide bond reduction), while the other was processed for analysis of disulfides.
To quantitatively reduce disulfide bonds the plasma in the first tube was treated with 5 mM tris(2-carboxyethyl)phosphine (TCEP), a selective and potent disulfide bond reducing agent, using a protocol reported by Dohil et al. (2012). Briefly, 2.2 ul of freshly prepared 50 mM TCEP stock solution was added to 20 ul of plasma and the sample incubated at 37 degrees C. for 45 minutes. […]
The denatured protein was pelleted by centrifugation at 14,000 rpm for 10 minutes at 4 degrees C. in an Eppendorf microcentrifuge. […] Metabolites were analyzed using a Nexera X2 U-HPLC (Shimadzu) and a Q-Exactive hybrid quadrupole Orbitrap mass spectrometer (Thermo Fisher Scientific). […]

[7] = cited from earlier work
[8] = administered to fasting patients; cited from earlier work
children with NAFLD = details: pediatric NAFLD patients treated for 24 weeks; cited from earlier work
[9] = system: CYP1A2, CYP2B6, CYP2C8, CYP2C9, CYP2C19, CYP2D6, CYP2E1, CYP2A6, CYP3A4; details: in vitro; cited from earlier work
[10] = system: CYP1A2, CYP2A6, CYP2B6, CYP2C8, CYP2C9, CYP2C19, CYP2D6, CYP2E1 and CYP3A4; details: in vitro; cited from earlier work
Plasmodium Falciparum = details: in vitro and in mouse models of malaria; cited from earlier work
Pseudomonas aeruginosa = details: cited from earlier work
[11] = Lynovex from Novabiotics; cited from earlier work
kidney fibrosis = details: two mouse models; cited from earlier work
[12] = system: erythrocytes from sickle cell disease patients; details: hypoxic conditions; cited from earlier work
[13] = system: cancer cell lines and xenograft models; details: cited from earlier work
R6/2 HD mouse model = details: R6/2 mouse; cited from earlier work
ALT and AST in plasma = assay: Example 9 NASH patient case: plasma liver enzymes; assay type: in vivo, human; details: within six weeks of initiating therapy; with vitamin C and vitamin E
Procedure: The daily dose of vitamin C is 2 grams and the daily dose of vitamin E is 800 international units of alpha tocopherol, RRR stereoisomer, which amounts to 533.3 milligrams per day (1 IU of tocopherol is defined as % milligrams of RRR-alpha-tocopherol). Half those amounts are administered twice per day.
Drug is administered in two divided doses (1,392 mg each) at 10 to 12 hour intervals, with breakfast and dinner.
In the second category (dynamic markers of drug response) levels of ALT and AST in plasma are followed over time as an index of ongoing hepatocyte damage. […] If ALT and AST levels had not dropped by 50% the regimen would have been discontinued.

[14] = system: white blood cell (WBC) cystine; assay: Example 8 cystinosis patient cases: white blood cell cystine; assay type: in vivo, human
Description: (§2) Dose formulations and treatment regimens for three patients with cystinosis are described, to illustrate both demographic variability in the patient population and how inter-individual biochemical variation in drug absorption, metabolism and response can be overcome by exploiting the drug and dosage form flexibility provided by the invention. These examples illustrate the principles of cysteamine precursor selection, dosage form selection and dose regimen individualization.
Disease control is monitored via periodic measurement of white blood cell cystine levels. The therapeutic target, as for all cystinosis patients, is to suppress white blood cell (WBC) cystine to less than 1 nanomole of ½ cystine per mg of WBC protein. […] If this higher dose is still not effective in controlling WBC cystine levels the dose can be further increased in increments of 150 mg/day.

[15] = Example 8 cystinosis patient cases: plasma cysteamine levels; assay type: in vivo, human
Description: as §2

cystinosis patients = details: high doses, syrup between meals; cited from earlier work
[16] = cysteamine hydrochloride at 30 mg/kg cysteamine base, gavage

SMILES: CC(C)(COP(=O)(O)O)[C@@H](O)C(=O)NCCC(=O)NCCS [4-phosphopantetheine]
- half life in blood [1]: over 3 hours

SMILES: CC(S)C(=O)NCC(=O)O (stereo not drawn) [Alpha-mercaptopropionylglycine]
- tolerability [2]: not tolerated by about one third of patients

SMILES: CC(=O)NCCSSCCNC(=O)CCNC(=O)[C@H](O)C(C)(C)CO [TTI-0602, N-acetylcysteamine-(R)-pantetheine disulfide]
- tissue level of cysteamine in kidney [3]: over 50 uM
- tissue level of cysteamine in liver [3]: over 50 uM
- undissolved drug in gastrointestinal contents [4]: a substantial amount of undissolved drug remained stuck in the stomachs of rats 8 and 9
- dissolution of dose in saline [5]: did not completely dissolve in saline

SMILES: Cl.NCCS [cysteamine HCl, cysteamine hydrochloride]
- shape of the plasma cysteamine concentration-time curve ([6]; cysteamine hydrochloride 30 mg/kg vs TTI-0602 120 mg/kg): a high, sharp peak
- peak plasma cysteamine concentration [6, 16]: over 200 uM
- time by which cysteamine concentration declined to less than half maximal [6, 16]: ≤ 90 min

SMILES: NCCS [cysteamine bitartrate]
- Cmax ([7]; read-out: Cmax of cysteamine, cysteamine bitartrate 20 mg/kg cysteamine base equivalent): 81.9 µM

SMILES: NCCS.O=C(O)C(O)C(O)C(=O)O (centres unmarked) [cysteamine bitartrate]
- time by which cysteamine levels returned to baseline ([7]; cysteamine bitartrate 20 mg/kg cysteamine base equivalent): ≤ 2 h
- cysteamine eliminated by 150 minutes (inferred) ([7]; cysteamine bitartrate 20 mg/kg, tissue): over 95%
- tissue half life of cysteamine ([7]; cysteamine bitartrate 20 mg/kg): 25 to 29 min

SMILES: NCCS [cysteamine, 2-aminoethanethiol]
- inter-patient variation in cysteamine plasma levels [8]: up to four fold
- high molecular weight adiponectin multimers (children with NAFLD): increased levels of high molecular weigh adiponectin multimers
- metabolism by CYP enzymes [9]: likely to be metabolized by multiple CYP enzymes, including CYP1A2, CYP2B6, CYP2C8, CYP2C9, CYP2C19, CYP2D6, and CYP2E1, but not by CYP2A6 or CYP3A4
- inhibition of CYP enzymes [10]: not an inhibitor of CYP1A2, CYP2A6, CYP2B6, CYP2C8, CYP2C9, CYP2C19, CYP2D6, CYP2E1 and CYP3A4
- proliferation of the parasite (Plasmodium Falciparum): inhibits proliferation
- effect on biofilms (Pseudomonas aeruginosa; P. aeruginosa biofilms): prevented the formation of, and disrupted established P. aeruginosa biofilms
- bactericidal activity (Pseudomonas aeruginosa; Pseudomonas aeruginosa and other CF pathogens, Lynovex from Novabiotics): bactericidal
- mucolytic activity vs. currently available mucolytic agents [11]: at least comparable mucolytic activity
- efficacy in kidney fibrosis models (kidney fibrosis): effective
- sickling [12]: marked inhibition of sickling
- matrix metalloproteinase activity ([13]; animal xenografts and cancer cell lines): significantly decreased
- survival of mice ([13]; xenograft models): prolonged survival of mice in a dose-dependent manner without toxicity
- beneficial effects in HD mouse model (R6/2 HD mouse model): amelioration of weight loss and motor abnormalities, and prolongation of survival

SMILES: CC(=O)NC(CSSCCN)C(=O)O (centres unmarked) [cysteamine-N-acetylcysteine, cysteamine-N-acetylcysteine disulfide]
- fall in plasma ALT (ALT and AST in plasma): at least 50%
- fall in plasma AST (ALT and AST in plasma): at least 50%

SMILES: CC(C)(CO)[C@@H](O)C(=O)NCCC(=O)NCCSSCCN [cysteamine-pantetheine disulfide, cysteamine-(R)-pantetheine disulfide]
- WBC cystine level ([14]; Patient 2, after sustained release component increased from 540 to 800 mg/day): 0.9 nanomoles of ½ cystine per mg protein
- WBC cystine level ([14]; Patient 2, after two months, 1,800 mg/day cysteamine free base as IR/DR/SR powders): 1.34 nanomoles of ½ cystine per mg of protein
- plasma cysteamine level six hours after the morning dose ([15]; Patient 2, 1,800 mg/day as IR/DR/SR powders): 22 µM
- plasma cysteamine level 12 hours after the morning dose ([15]; Patient 2, immediately before the evening dose): 4 µM

SMILES: CC(C)(CO)[C@@H](O)C(=O)NCCC(=O)NCCSSCCNC(=O)CCNC(=O)[C@H](O)C(C)(C)CO [pantethine]
- gastrointestinal side effect (cystinosis patients): caused diarrhea

SMILES: CC(C)(S)[C@@H](N)C(=O)O [penicillamine]
- tolerability [2]: not well tolerated by most patients

SMILES: CC(S)C(=O)NCC(=O)O (centres unmarked) [tiopronin]
- tolerability [2]: not well tolerated by most patients
